Measurements taken from publication PMC6222509, “Dibasic Derivatives of Phenylcarbamic Acid against Mycobacterial Strains: Old Drugs and New Tricks?” (Molecules : A Journal of Synthetic Chemistry and Natural …, 2018).
Converted amounts (≈) assume the structure as drawn. Read-outs that look alike come from different tables or passages of the source.

Assays:
[1] = test system: M. tuberculosis H37Ra ATCC 25177 (MTa H37Ra); test: in vitro antimycobacterial MIC, 96-well Middlebrook broth, alamarBlue; assay type: cell-based, Mycobacterium tuberculosis; settings: 7-day cultivation, read-out: MIC MTa H37Ra 7-d
Protocol: In vitro susceptibitity of given mycobacteria to reference drugs isoniazid (INH), ethambutol (EMB), ofloxacin (OFLX) or ciprofloxacin (CPX) was tested as well (Table 6 and Table 7).
A value of a minimum inhibitory concentration (MIC) was the lowest concentration of a tested compound, (i) which inhibited growth of MTv H37Rv, MK 235/80, MK 6509/96 and MA 330/80, respectively; (ii) at which no visible growth of MTa H37Ra, MS, MK DSM as well as MM was observed.
The molecules 1a–p were also in vitro screened against an avirulent M. tuberculosis H37Ra ATCC 25177 (MTa H37Ra), M. kansasii DSM 44162 (MK DSM), M. smegmatis ATCC 700084 (MS) and M. marinum CAMP 5644 (MM), respectively, in the Department of Infectious Diseases and Microbiology (Faculty of Veterinary Medicine, University of Veterinary and Pharmaceutical Sciences in Brno, Czech Republic).
Determination of a minimum inhibitory concentration (MIC) against MTa H37Ra. The mycobacterium was grown on Middlebrook broth (MB; MiddleBrook Pharmaceuticals, Inc., Westlake, TX, USA), supplemented with Oleic-Albumin-Dextrose-Catalase (OADC) supplement (Difco, Lawrence, KS, USA) and salicylate-derived mycobactin J (2 μg/mL; Allied Monitor Inc., Fayette, MO, USA), an iron-binding siderophore.
At log phase growth, a culture sample (10 mL) was centrifuged at 15,000 rpm/20 min using a bench top centrifuge MPW-65R (MPW Med Instruments, Warsaw, Poland). Following removal of the supernatant, a pellet was washed in fresh liquid Middlebrook 7H9GC broth (MiddleBrook Pharmaceuticals, Inc.) and re-suspended in a fresh OADC-supplemented MB (10 mL).
Turbidity was adjusted to match the McFarland standard No. 1 [87] containing approximately 3 × 10^8 Colony Forming Units (CFU) with MB broth. Further 1:20 dilution of the culture was performed in MB broth.
Susceptibility of MTa H37Ra was investigated in a 96-well plate format. In the experiments, sterile deionized water (300 µL) was added to all outer-perimeter wells of the plates to minimize evaporation of the medium in test wells during incubation. Each evaluated compound (100 µL) was incubated with MTa H37Ra (100 µL). Dilutions of each compound were prepared in triplicate and final concentrations varied from 1000 μg/mL to 8 μg/mL. All tested molecules were dissolved in DMSO (Sigma-Aldrich, Irvine, UK), and subsequent dilutions were made in supplemented MB broth. The plates were sealed with parafilm and incubated at 37 °C for 7 days.
Following incubation, 10% addition a water-soluble dye, the alamarBlue reagent (AbD Serotec, Kidlington, UK) was mixed into each well. This resaurin-based reagent served as an oxidation-reduction indicator of metabolic function and cellular health in cell viability bioassays.
Absorbance readings at 570 nm and 600 nm were taken, initially for background subtraction and after 24h re-incubation. The subtraction is necessary for strongly colored compounds, where the color may interfere with the interpretation of any color change. For non-interfering compounds, a blue color in a well was interpreted as absence of growth and pink color was scored as growth.
The minimum inhibitory concentration (MIC) was defined as the lowest concentration of a compound, at which no visible bacterial growth was observed. In other words, the MIC was the lowest concentration that prevented visual color change from blue to pink.

[2] = test system: M. avium CNCTC My 330/80 (identical with ATCC 25291; MA 330/80); test: in vitro antimycobacterial MIC, dilution micromethod in Šula's semisynthetic medium; assay type: cell-based, Mycobacterium avium
white mice = settings: subcutaneous application; cited from earlier work
rabbit cornea = test system: rabbit cornea; parameters: method as in PMID 8402965; settings: 0.01 M cocaine as standard; cited from earlier work
guinea pig = test system: guinea pig; parameters: method as in PMID 8402965; settings: intradermal, 0.02 M procaine as standard; cited from earlier work
[3] = Mycobacterium tuberculosis, 168 h
[4] = Mycobacterium avium, ATCC25291, 336 h, 14-day cultivation, read-out: MIC MA 330/80 14-d
[5] = Mycobacterium avium, ATCC25291, 504 h, 21-day cultivation, read-out: MIC MA 330/80 21-d
[6] = Mycobacterium avium, ATCC25291, 336 h, read-out: MIC MA 330/80 14-d
[7] = Mycobacterium avium, ATCC25291, 504 h, read-out: MIC MA 330/80 21-d
[8] = 21-day cultivation, read-out: MIC MA 330/80 21-d

| SMILES | MIC [1, 3] | MIC [2, 4] | MIC [2, 5] | MIC [2, 6] | MIC [2, 7] | other results |
| --- | --- | --- | --- | --- | --- | --- |
| CCCCOc1ccccc1NC(=O)OC(CN(CCC)CCC)CN1CCCC1 (centres unmarked) [1a] | 213 µM (≈ 89.4 µg/mL) | 125 µM (≈ 52.5 µg/mL) | 125 µM (≈ 52.5 µg/mL) |  |  |  |
| CCCCCOc1ccccc1NC(=O)OC(CN(CCC)CCC)CN1CCCC1 (centres unmarked) [1b] | 52 µM (≈ 22.5 µg/mL) | 62.5 µM (≈ 27.1 µg/mL) | 125 µM (≈ 54.2 µg/mL) |  |  |  |
| CCCCCCOc1ccccc1NC(=O)OC(CN(CCC)CCC)CN1CCCC1 (centres unmarked) [1c] | 25 µM (≈ 11.2 µg/mL) | 32 µM (≈ 14.3 µg/mL) | 62.5 µM (≈ 28 µg/mL) |  |  | LD50 (white mice): 600 mg/kg |
| CCCCCCCOc1ccccc1NC(=O)OC(CN(CCC)CCC)CN1CCCC1.Cl.Cl (centres unmarked) [1d, 1-[2-[({[2-(heptyl-oxy)phenyl]amino}carbonyl)oxy]-3-(dipropylammonio)propyl]pyrrolidinium dichloride] | 12.5 µM |  |  | 32 µM | 32 µM |  |
| CCCCOc1cccc(NC(=O)OC(CN(CCC)CCC)CN2CCCC2)c1 (centres unmarked) [1e] | 8.1 µM (≈ 3.4 µg/mL) | 62.5 µM (≈ 26.2 µg/mL) | 62.5 µM (≈ 26.2 µg/mL) |  |  |  |
| CCCCCOc1cccc(NC(=O)OC(CN(CCC)CCC)CN2CCCC2)c1.Cl.Cl (centres unmarked) [1f, 1-[2-[({[3-(pentyloxy)phenyl]amino}carbonyl)oxy]-3-(dipropylammonio)propyl]-pyrrolidinium dichloride] | < 3.9 µM |  |  | 32 µM | 32 µM | Us, index of relative surface local anesthetic efficiency (rabbit cornea): 130; Ui, index of relative infiltration local anesthetic efficiency (guinea pig): 250 |
| CCCCCCOc1cccc(NC(=O)OC(CN(CCC)CCC)CN2CCCC2)c1 (centres unmarked) [1g] | < 3.8 µM | 16 µM (≈ 7.16 µg/mL) | 16 µM (≈ 7.16 µg/mL) |  |  | MIC ([2]; Mycobacterium avium, ATCC25291, cultivation time not given, read-out: MIC MA 330/80): 16 µM (≈ 7.16 µg/mL) |
| CCCCCCCOc1cccc(NC(=O)OC(CN(CCC)CCC)CN2CCCC2)c1.Cl.Cl (centres unmarked) [1h, 1-[2-[({[3-(heptyloxy)phenyl]amino}carbonyl)oxy]-3-(dipropylammonio)propyl]pyrrolidinium dichloride] | < 3.7 µM |  |  | 8 µM | 16 µM | MIC ([2]; Mycobacterium avium, ATCC25291, read-out: MIC MA 330/80): 16 µM |
| CCCCOc1ccccc1NC(=O)OC(CN(CCC)CCC)CN1CCCCCC1 (centres unmarked) [1i] | 203 µM (≈ 90.9 µg/mL) | 62.5 µM (≈ 28 µg/mL) | 125 µM (≈ 56 µg/mL) |  |  |  |
| CCCCCOc1ccccc1NC(=O)OC(CN(CCC)CCC)CN1CCCCCC1.O=C(O)C(=O)O (centres unmarked) [1j, 1-[2-[({[2-(Pentyloxy)phenyl]amino}carbonyl)oxy]-3-(dipropylammonio)propyl]-azepanium oxalate] | 199 µM |  |  | 62.5 µM | 125 µM |  |
| CCCCCCOc1ccccc1NC(=O)OC(CN(CCC)CCC)CN1CCCCCC1 (centres unmarked) [1k] | 195 µM (≈ 92.8 µg/mL) | 32 µM (≈ 15.2 µg/mL) | 62.5 µM (≈ 29.7 µg/mL) |  |  |  |
| CCCCCCCOc1cccc(NC(=O)OC(CN(CCC)CCC)CN2CCCCCC2)c1.O=C(O)C(=O)O (centres unmarked) [1l, 1-[2-[({[3-(hept-yloxy)phenyl]amino}carbonyl)oxy]-3-(dipropylammonio)propyl]azepanium oxalate] |  | 32 µM |  |  |  | MIC [1]: 96 µM; MIC [2, 8]: 62.5 µM |
| CCCCOc1cccc(NC(=O)OC(CN(CCC)CCC)CN2CCCCCC2)c1 (centres unmarked) [1m] | 15.4 µM (≈ 6.89 µg/mL) | 16 µM (≈ 7.16 µg/mL) | 32 µM (≈ 14.3 µg/mL) |  |  |  |
| CCCCCOc1cccc(NC(=O)OC(CN(CCC)CCC)CN2CCCCCC2)c1.Cl.Cl (centres unmarked) [1n, 1-[2-[({[3-(pentyloxy)phenyl]amino}carbonyl)oxy]-3-(di-propylammonio)propyl]azepanium dichloride] | 7.5 µM |  |  | 16 µM | 16 µM |  |
| CCCCCCOc1cccc(NC(=O)OC(CN(CCC)CCC)CN2CCCCCC2)c1.Cl.Cl (centres unmarked) [1o, 1-[2-[({[3-(hexyloxy)phenyl]amino}-carbonyl)oxy]-3-(dipropylammonio)propyl]azepanium dichloride] | 7.3 µM |  |  | 16 µM | 16 µM |  |
| CCCCCCCOc1cccc(NC(=O)OC(CN(CCC)CCC)CN2CCCCCC2)c1.Cl.Cl (centres unmarked) [1p, 1-[2-[({[3-(heptyloxy)phenyl]amino}carbonyl)-oxy]-3-(dipropylammonio)propyl]azepanium dichloride] |  |  |  |  |  | MIC [1]: 7.1 µM; MIC ([2]; 14-day cultivation, read-out: MIC MA 330/80 14-d): 16 µM; MIC [2, 8]: 16 µM |
